# Measurements: patent publication US12378224B2 (Dong-A Socio Holdings Co., Ltd., priority 2016, dated 2025)
# Legend:
# [1] = molecular target: human MER (528-end) (Homo sapiens (Human), UniProt Q12866); experiment: HTRF Kinase Activity Biochemical Assay (KinEASE-TK); conditions: 10 uM ATP
# Method in brief: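 Activity read-out is the HTRF ratio (665 nm over 620 nm emission, ×10,000; excitation 340 nm) after 1 h detection with 0.375 nM Eu3+-cryptate anti-TK antibody plus 0.062 uM SA-XL665. Preceding kinase step: human MER (528-end), biotinylated TK substrate, 1 h, room temperature.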
# [2] = molecular target: BCR fusion to kinase domain of MerTK (Ba/F3-MerTK) (Homo sapiens, UniProt Q12866); experiment: In Cell TAM Kinase Assay Using BaF3 Cellular System; format: cell-based, murine; conditions: Ba/F3 BCR-kinase fusion proliferation, 72 hours, Cell Titer Glo; kinase not given; read-out: IC50
# Chain of BCR fusion to kinase domain of MerTK (Ba/F3-MerTK) (Q12866 21-999 limits assumed, stated change not applied): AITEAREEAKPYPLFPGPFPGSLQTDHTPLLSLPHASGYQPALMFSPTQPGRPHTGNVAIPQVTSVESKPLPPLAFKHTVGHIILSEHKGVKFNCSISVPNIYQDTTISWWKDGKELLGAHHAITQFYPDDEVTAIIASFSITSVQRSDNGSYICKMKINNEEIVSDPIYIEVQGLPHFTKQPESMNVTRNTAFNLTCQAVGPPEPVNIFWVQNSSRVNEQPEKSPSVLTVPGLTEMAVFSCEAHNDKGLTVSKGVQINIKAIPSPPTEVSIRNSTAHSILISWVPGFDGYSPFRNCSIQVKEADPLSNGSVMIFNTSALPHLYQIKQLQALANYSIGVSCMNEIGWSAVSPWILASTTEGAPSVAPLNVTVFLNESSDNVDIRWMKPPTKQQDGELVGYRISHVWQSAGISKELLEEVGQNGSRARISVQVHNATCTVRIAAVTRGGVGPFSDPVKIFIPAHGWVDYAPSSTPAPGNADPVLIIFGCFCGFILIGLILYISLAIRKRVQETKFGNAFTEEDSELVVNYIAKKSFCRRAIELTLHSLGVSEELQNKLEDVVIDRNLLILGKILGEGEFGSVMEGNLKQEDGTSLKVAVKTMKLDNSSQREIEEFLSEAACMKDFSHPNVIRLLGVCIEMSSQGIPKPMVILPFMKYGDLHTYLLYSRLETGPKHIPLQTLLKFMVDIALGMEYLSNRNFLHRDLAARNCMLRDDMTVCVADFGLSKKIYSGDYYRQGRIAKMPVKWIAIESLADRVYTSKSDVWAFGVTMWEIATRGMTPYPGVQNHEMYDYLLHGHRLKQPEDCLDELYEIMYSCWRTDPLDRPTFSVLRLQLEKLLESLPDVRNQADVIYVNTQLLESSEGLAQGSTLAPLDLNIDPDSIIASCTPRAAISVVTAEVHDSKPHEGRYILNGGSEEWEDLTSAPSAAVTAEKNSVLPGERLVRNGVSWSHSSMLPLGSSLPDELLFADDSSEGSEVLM
# Text: Three Ba/F3 cell lines (a murine IL-3 dependent pro-B cell line) expressing BCR fusions to the kinase domains of either MerTK (Ba/F3-MerTK), Axl (Ba/F3-Axl), or Tyro3 (Ba/F3-Tyro3) were purchased from Advanced Cellular Dynamics. The IL-3 independence of all 3 cell lines was confirmed. After thawing, the 3 Ba/F3 cell lines were split and maintained in cell culture media, which consisted of RPMI-1640-HEPES (Thermo-Cat #22400-089) with 1× Glutamax (Thermo-Cat #35050-061) and 10% FBS (Sigma-Cat #F4135 (500 ml), at a cell density range of 0.05×10^6−1×10^6 cells/mL 4 days before used in the routine screen. Compound plates were prepared using Nunc™ white 384-well optical bottom plates (ThermoFisher, USA) with compound in 25 nL dimethyl sulfoxide in each well. For routine assays, each of the 3 Ba/F3 cell lines was seeded at 1,000 cells per well with 25 µL of cell culture media directly into 384-well compound plates and incubated for 72 hours. Cell proliferation was then measured by adding 25 μL of Cell Titer Glo 2.0 (Promega, USA). After incubating with Cell Titer Glo at room temperature for 30 mins, the luminescence intensity, which quantifies the cell viability, was measured using an Envision™ plate reader (PerkinElmer, USA). […] In the presence of IL-3, the proliferation of the Ba/F3-Tyro3 cells is no longer dependent on the Tyro3 kinase activity.
# Chain of human MER (528-end) (Q12866 528-999 limits assumed): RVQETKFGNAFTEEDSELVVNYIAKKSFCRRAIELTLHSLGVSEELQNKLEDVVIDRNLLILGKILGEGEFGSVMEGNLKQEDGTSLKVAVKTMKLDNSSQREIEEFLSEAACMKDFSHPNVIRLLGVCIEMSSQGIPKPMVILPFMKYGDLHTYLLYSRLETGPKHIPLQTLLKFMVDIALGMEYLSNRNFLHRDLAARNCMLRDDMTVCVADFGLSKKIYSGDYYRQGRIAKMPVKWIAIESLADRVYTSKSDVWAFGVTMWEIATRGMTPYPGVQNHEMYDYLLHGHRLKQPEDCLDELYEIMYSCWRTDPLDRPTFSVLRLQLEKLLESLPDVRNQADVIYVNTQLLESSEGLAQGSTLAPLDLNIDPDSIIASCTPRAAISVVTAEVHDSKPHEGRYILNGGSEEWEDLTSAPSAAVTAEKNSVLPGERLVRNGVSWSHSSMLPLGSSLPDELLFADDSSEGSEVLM
IC50 [1] [nM],IC50 [2] [nM],SMILES
> 1000,> 1000,"Cn1cc(-c2cnc(N)c(C(=O)N[C@@H]3CCN(C(=O)c4ccc(-c5ccc(CN6CCOCC6)cc5)cc4)C3)c2)cn1 [Example 711, (R)-2-amino-5-(1-methyl-1H-pyrazol-4-yl)-N-(1-(4′-(morpholinomethyl)-[1,1′-biphenyl]-4-carbonyl)pyrrolidin-3-yl)nicotinamide]"
10 to 100,500 to 1000,"Cn1cc(-c2cnc(N)c(C(=O)N[C@@H]3CCN(C(=O)c4ccc(-c5cccc(-c6nnnn6C)c5)cc4)C3)c2)cn1 [Example 712, (R)-2-amino-5-(1-methyl-1H-pyrazol-4-yl)-N-(1-(3′-(1-methyl-1H-tetrazol-5-yl)-[1,1′-biphenyl]-4-carbonyl)pyrrolidin-3-yl)nicotinamide]"
100 to 1000,> 1000,"Cn1cc(-c2cnc(N)c(C(=O)N[C@@H]3CCN(C(=O)c4ccc(-c5cccc(-c6nnn[nH]6)c5)cc4)C3)c2)cn1 [Example 713, (R)—N-(1-(3′-(1H-tetrazol-5-yl)-[1,1′-biphenyl]-4-carbonyl)pyrrolidin-3-yl)-2-amino-5-(1-methyl-1H-pyrazol-4-yl)nicotinamide]"
10 to 100,> 1000,"Cc1nc(-c2cccc(-c3ccc(C(=O)N4CC[C@@H](NC(=O)c5cc(-c6cnn(C)c6)cnc5N)C4)cc3)c2)no1 [Example 714, (R)-2-amino-N-(1-(3′-(5-methyl-1,2,4-oxadiazol-3-yl)-[1,1′-biphenyl]-4-carbonyl)pyrrolidin-3-yl)-5-(1-methyl-1H-pyrazol-4-yl)nicotinamide]"
10 to 100,500 to 1000,"Cn1cc(-c2cnc(N)c(C(=O)N[C@@H]3CCN(C(=O)c4ccc(Oc5ccccc5Cl)cc4)C3)c2)cn1 [Example 718, (R)-2-amino-N-(1-(4-(2-chlorophenoxy)benzoyl)pyrrolidin-3-yl)-5-(1-methyl-1H-pyrazol-4-yl)nicotinamide]"
> 1000,> 1000,"Cn1cc(-c2cnc(N)c(C(=O)NC[C@H]3CCN(C(=O)c4ccc(-c5ccccc5)cc4)C3)c2)cn1 [Example 740, (R)—N-((1-([1,1′-biphenyl]-4-carbonyl)pyrrolidin-3-yl)methyl)-2-amino-5-(1-methyl-1H-pyrazol-4-yl)nicotinamide]"
100 to 1000,> 1000,"Cn1cc(-c2cnc(N)c(C(=O)N[C@@H]3CCN(C(=O)c4ccc(-c5ccc(CO)cc5)cc4)C3)c2)cn1 [Example 747, (R)-2-amino-N-(1-(4′-(hydroxymethyl)-[1,1′-biphenyl]-4-carbonyl)pyrrolidin-3-yl)-5-(1-methyl-1H-pyrazol-4-yl)nicotinamide]"
10 to 100,100 to 500,"Cn1cc(-c2cnc(N)c(C(=O)N[C@@H]3CCN(C(=O)c4ccc(-c5cccc(CO)c5)cc4)C3)c2)cn1 [Example 748, (R)-2-amino-N-(1-(3′-(hydroxymethyl)-[1,1′-biphenyl]-4-carbonyl)pyrrolidin-3-yl)-5-(1-methyl-1H-pyrazol-4-yl)nicotinamide]"
> 1000,> 1000,"Cn1cc(-c2cnc(N)c(C(=O)N[C@@H]3CCN(C(=O)c4ccc(-c5ccc(O)nc5)cc4)C3)c2)cn1 [Example 749, (R)-2-amino-N-(1-(4-(6-hydroxypyridin-3-yl)benzoyl)pyrrolidin-3-yl)-5-(1-methyl-1H-pyrazol-4-yl)nicotinamide]"
10 to 100,> 1000,"Cn1cc(-c2cnc(N)c(C(=O)N[C@@H]3CCN(C(=O)c4ccc(-c5ccc6ccccc6c5)cc4)C3)c2)cn1 [Example 750, (R)-2-amino-5-(1-methyl-1H-pyrazol-4-yl)-N-(1-(4-(naphthalen-2-yl)benzoyl)pyrrolidin-3-yl)nicotinamide]"
> 1000,> 1000,"Cn1cc(-c2cnc(N)c(C(=O)N[C@@H]3CCN(C(=O)c4ccc(-c5ccc(C6=CCNCC6)cc5)cc4)C3)c2)cn1 [Example 755, (R)-2-amino-5-(1-methyl-1H-pyrazol-4-yl)-N-(1-(4′-(1,2,3,6-tetrahydropyridin-4-yl)-[1,1′-biphenyl]-4-carbonyl)pyrrolidin-3-yl)nicotinamide]"

# Further lines, the compound ahead of its results:
SMILES,IC50 [1] [nM],IC50 [2] [nM]
"Cn1cc(-c2cnc(N)c(C(=O)N[C@@H]3CCN(C(=O)c4c[nH]c(=O)n(-c5ccc(F)cc5)c4=O)C3)c2)cn1 [Example 707, (R)-2-amino-N-(1-(3-(4-fluorophenyl)-2,4-dioxo-1,2,3,4-tetrahydropyrimidine-5-carbonyl)pyrrolidin-3-yl)-5-(1-methyl-1H-pyrazol-4-yl)nicotinamide]",> 1000,> 1000
"Cn1cc(-c2cnc(N)c(C(=O)N[C@@H]3CCN(C(=O)c4cc5cc(Br)ccc5s4)C3)c2)cn1 [Example 708, (R)-2-amino-N-(1-(5-bromobenzo[b]thiophene-2-carbonyl)pyrrolidin-3-yl)-5-(1-methyl-1H-pyrazol-4-yl)nicotinamide]",100 to 1000,500 to 1000
"Cn1cc(-c2cnc(N)c(C(=O)N[C@@H]3CCN(C(=O)c4ccc5c(ccn5CC5CCNCC5)c4)C3)c2)cn1 [Example 709, (R)-2-amino-5-(1-methyl-1H-pyrazol-4-yl)-N-(1-(1-(piperidin-4-ylmethyl)-1H-indole-5-carbonyl)pyrrolidin-3-yl)nicotinamide]",100 to 1000,> 1000
"Cn1cc(-c2cnc(N)c(C(=O)N[C@@H]3CCN(C(=O)c4c[nH]c5ccccc45)C3)c2)cn1 [Example 710, (R)—N-(1-(1H-indole-3-carbonyl)pyrrolidin-3-yl)-2-amino-5-(1-methyl-1H-pyrazol-4-yl)nicotinamide]",> 1000,> 1000
"CN1CCC(N(Cc2ccccc2)c2ccc3cc(C(=O)N4CC[C@@H](NC(=O)c5cc(-c6cnn(C)c6)cnc5N)C4)ccc3c2)CC1 [Example 720, (R)-2-amino-N-(1-(6-(benzyl(1-methylpiperidin-4-yl)amino)-2-naphthoyl)pyrrolidin-3-yl)-5-(1-methyl-1H-pyrazol-4-yl)nicotinamide]",100 to 1000,> 1000
"CCN(c1ccc2cc(C(=O)N3CC[C@@H](NC(=O)c4cc(-c5cnn(C)c5)cnc4N)C3)ccc2c1)C1CC(C)(C)N(C)C(C)(C)C1 [Example 721, (R)-2-amino-N-(1-(6-(ethyl(1,2,2,6,6-pentamethylpiperidin-4-yl)amino)-2-naphthoyl)pyrrolidin-3-yl)-5-(1-methyl-1H-pyrazol-4-yl)nicotinamide]",10 to 100,100 to 500
"CN1C(C)(C)CC(Nc2ccc3cc(C(=O)N4CC[C@@H](NC(=O)c5cc(-c6cnn(C)c6)cnc5N)C4)ccc3c2)CC1(C)C [Example 722, (R)-2-amino-5-(1-methyl-1H-pyrazol-4-yl)-N-(1-(6-((1,2,2,6,6-pentamethylpiperidin-4-yl)amino)-2-naphthoyl)pyrrolidin-3-yl)nicotinamide]",> 1000,> 1000
"Cn1cc(-c2cnc(N)c(C(=O)NC[C@@H]3CCCN3C(=O)c3ccc(-c4ccccc4)cc3)c2)cn1 [Example 734, (S)—N-((1-([1,1′-biphenyl]-4-carbonyl)pyrrolidin-2-yl)methyl)-2-amino-5-(1-methyl-1H-pyrazol-4-yl)nicotinamide]",> 1000,> 1000
"Cn1cc(-c2cnc(N)c(C(=O)NC[C@@H]3CCCN3C(=O)c3cccc(-c4ccccc4)c3)c2)cn1 [Example 735, (S)—N-((1-([1,1′-biphenyl]-3-carbonyl)pyrrolidin-2-yl)methyl)-2-amino-5-(1-methyl-1H-pyrazol-4-yl)nicotinamide]",> 1000,> 1000
"Cn1cc(-c2cnc(N)c(C(=O)NC[C@H]3CCCN3C(=O)c3cccc(-c4ccccc4)c3)c2)cn1 [Example 737, (R)—N-((1-([1,1′-biphenyl]-3-carbonyl)pyrrolidin-2-yl)methyl)-2-amino-5-(1-methyl-1H-pyrazol-4-yl)nicotinamide]",> 1000,> 1000
"Cn1cc(-c2cnc(N)c(C(=O)NC[C@H]3CCN(C(=O)c4cccc(-c5ccccc5)c4)C3)c2)cn1 [Example 741, (R)—N-((1-([1,1′-biphenyl]-3-carbonyl)pyrrolidin-3-yl)methyl)-2-amino-5-(1-methyl-1H-pyrazol-4-yl)nicotinamide]",> 1000,> 1000
"Cn1cc(-c2cnc(N)c(C(=O)N[C@@H]3CCN(C(=O)c4ccc(C5=CCNCC5)cc4)C3)c2)cn1 [Example 753, (R)-2-amino-5-(1-methyl-1H-pyrazol-4-yl)-N-(1-(4-(1,2,3,6-tetrahydropyridin-4-yl)benzoyl)pyrrolidin-3-yl)nicotinamide]",> 1000,> 1000
"CN1CC=C(c2ccc(C(=O)N3CC[C@@H](NC(=O)c4cc(-c5cnn(C)c5)cnc4N)C3)cc2)CC1 [Example 754, (R)-2-amino-N-(1-(4-(1-methyl-1,2,3,6-tetrahydropyridin-4-yl)benzoyl)pyrrolidin-3-yl)-5-(1-methyl-1H-pyrazol-4-yl)nicotinamide]",> 1000,> 1000
